Entries after “also recorded” stand apart in the source; their conditions may differ.

One may read the inhibition as the relative decrease from the control value, in per cent.

Assay [1] relates to murine femoral artery wire injury model (neointimal hyperplasia). Nature of the assay: Femoral artery wire injury model, morphometry of neointimal formation. Format: in vivo, mouse. Details: Lumen / Media / Intima / TVA (total vessel area): unit not given here. The text has this: Animal Models and Drug Treatments. Wild type C57BL/6J background mice and mice deficient for leptin (C57BL/6J-Lepob; ob/ob) or the leptin receptor (C57BL/6J-m+/+Lepdb; db/db) were purchased from Charles Jackson Laboratories, Maine. Mice were obtained at ages 6-8 weeks old and average weight 15 g. Animals were fed standard rodent chow and tap water ad libitum. Procedures and animal care were approved by the Institutional Animal Care and Use Committee. Mice were subjected to femoral artery wire injury or sham injury described below 24 hr prior to starting pharmacological treatments. Sirolimus was administered by intraperitoneal injection once per day for 14 days as a suspension in 0.2% sodium carboxymethyl cellulose and 0.25% polysorbate-80; duplicate experiments were accomplished with 0.5% DMSO. Leptin or LY294002 was administered by intraperitoneal injection once per day for 14 days as a suspension in PBS. Plasma leptin levels were measured at baseline, 3, 6, and 10 hr after leptin injection using an ELISA assay (R&D). Leptin plus the vehicle used for both sirolimus and LY294002 was used as the control group for the treatment groups with sirolimus and LY294002. After the 2-week treatment, animals were processed for femoral artery morphometry.
Femoral Artery Injury Model. Endoluminal injury of bilateral femoral arteries was performed according to the method of Roque et al. with minor modification 27. […] Briefly, to denude and dilate femoral arteries, a 0.014″ angioplasty guidewire (Guidant) was passed endoluminally 3 times to the level of the aortic bifurcation. A sham protocol was performed where the arteries underwent dissection, clamping, and ligature without passage of the guidewire.
Computer-aided quantitative morphometry to measure luminal, medial, intimal, and vessel areas were performed as previously described 27 with minor modification. Mice were euthanized via CO2 asphyxiation prior to en bloc excision of hind limbs. Briefly, multiple segments of the common femoral artery at the level of injury were fixed in 10% Zinc Formalin, embedded in paraffin, sectioned at […] thickness, and subjected to Elastic-Van Gieson staining at a Columbia University Core Histology facility. In many cases, arteries underwent immunohistochemical staining for smooth muscle a-actin to highlight the media and neointima. Photomicrographs were captured on Adobe Photoshop 7.0 and transferred to Scion Image software for quantitative analysis. Specimens were analyzed by two independent operators blinded to the treatment groups. Microsoft Excel software was used to calculate the RNI values from I/M ratios in the absence and presence of pharmacological inhibitors, as detailed in the text.
Surgical Procedures: The mouse femoral artery wire injury model of was used with minor modifications (Roque M, et al., Arterioscler Thromb Vasc Biol, 2000, 20(2):335-42). Briefly, forty-two male mice were studied. Endoluminal injury to the common femoral artery was produced by either 3 passages of a 0.014″ diameter angioplasty guidewire (Guidant, Santa Clara, Calif.). […] While being viewed under a surgical microscope, a groin incision was made and the femoral artery was isolated and temporarily clamped distal to the inguinal ligament. An arteriotomy was performed and the guidewire was passed 3 times to the level of the aortic bifurcation. The artery was then ligated proximal to the arteriotomy. A sham protocol was carried out on the contralateral side where the arteries underwent dissection, temporary clamping, and ligature, without passage of the wire. The formation of the neointima was confirmed in this model as being comprised mainly of VSMCs through immunohistochemical staining of representative sections for α-smooth muscle actin via a commercial kit (Sigma).
For all treatment protocols, rapamycin was administered by intraperitoneal injection once per day, for 14 days, as a suspension in 0.2% sodium carboxymethyl cellulose and 0.25% polysorbate-80. […]

Assay [2] relates to primary murine aortic vascular smooth muscle cells (VSMC). Briefly: VSMC proliferation assay (Coulter counter / MTS-based). Format: cell-based, mouse. The method, then:
The methods used in the above experiments were as follows: Cell Culture and VSMC Proliferation Assays. Primary VSMC were isolated from aortic explants of wildtype, ob/ob, or db/db mice in the method of Roque et al. 30. VSMC were routinely cultured in Dulbecco's Modified Eagle's Medium (DMEM) containing either 4500 or 1250 mg/L glucose supplemented with 20% FBS at 37° C. in a 5% CO2 incubator. […] Cells were plated at 200,000 cells/ well of a 6 well dish and subsequently serum starved for 72 hr in DMEM media supplemented with 0.1 % FBS. Leptin dissolved in PBS was added directly to serum-free media at concentrations of 1, 10, or 100 ng/ml with […] LY294002 or U0126, and cells were grown for another 72 hr before harvesting. VSMC proliferation was measured by counting samples using a Coulter counter or using the Cell Titre 96 Aqueous One Solution Cell Proliferation Assay kit (Promega). Cell viability was assessed by Trypan Blue staining.
Proliferation of VSMCs: VSMC proliferation was measured by counting triplicate samples using a Coulter counter or using the CellTitier 96 Aqueous One Solution Cell Proliferation Assay (Promega, Madison, Wis.) kit per manufacturer's instructions. Cell viability was assessed via staining with Trypan Blue.
Murine VSMCs (2×10^4 cells/well) were incubated in a 6-well tissue culture plate for 72 hours in DMEM containing 0.1% FBS with or without insulin (10 or 100 nmol/L) and with 0, 1, 10, or 100 nmol/L rapamycin. Triplicate samples were counted using a Coulter counter and were normalized as percentage of the control group. Cell viability was checked via Trypan blue staining.
Murine VSMCs, seeded 2×10^4 cells/well in a 6-well plate, were starved for 72 hrs in DMEM with 0.1% FBS. Rapamycin, leptin, or insulin in different concentrations indicated in the figure were incubated with VSMCs in DMEM with 0.1% of FBS for 72 hrs. Triplicate samples were counted via a Coulter counter. Cell viability was checked via Trypan blue staining. […] In panel C, VSMCs were exposed to U0126, a specific MEK1/2 inhibitor, or LY294002, a specific PI3K inhibitor.
Primary VSMC were isolated from aortic explants of WT, ob/ob, or db/db mice (46). VSMC proliferation was determined using the Cell Titre Aqueous One Solution Proliferation Assay (Promega, Madison, Wis.). Migration to PDGF-BB was assessed in a modified Boyden chamber assay (47).

Assay [3] has as its system Akt Thr-308 phosphorylation. Briefly: Akt Thr-308 phosphorylation in descending aorta homogenates after i.p. treatment. Particulars: Mus musculus, ip, 168 h; LY294002 1.2 mg/kg/day i.p., 7 days; read-out: inhibition of basal Thr-308 phosphorylation of Akt in descending aortas. Type of assay: in vivo. The text has this: Animals were processed for femoral artery morphometry after the 14-day drug treatments. For assessing LY294002 efficacy in vivo, descending aortas from mice treated with LY294002 or vehicle were harvested after 7 days of treatment; 3-4 aortas were pooled for immunoblot assessment of Akt phosphorylation.

The subject of assay [4] is primary murine aortic vascular smooth muscle cells (VSMC). Nature of the assay: VSMC proliferation assay (Coulter counter / MTS-based). Format: cell-based, mouse. As to conditions: Example 5; 6 nM leptin; inhibitor 10 μM.
Assay [5] deals with cultured porcine coronary arteries. Particulars: LY294002 10 μM; cited from earlier work.
The mark [6] stands for this setting: wire injury + leptin 0.4 mg/kg, LY 1.2 mg/kg daily i.p. 14 days, mean ± SD.

Consider `O=c1cc(N2CCOCC2)oc2c(-c3ccccc3)cccc12` [LY294002, 2-(4-morpholinyl)-8-phenyl-4H-1-benzopyran-4-one], for which, in assay [1] (LY294002 1.2 mg/kg/d alone, leptin 0.4 mg/kg/d, 14 days), the “inhibition of leptin-induced neointimal formation” value is reported as “partially inhibited; also recorded: not the LY294002 alone group revealed a complete inhibition”. Also, the “relative neointimal inhibition (RNI)” value in assay [1] (LY294002 1.2 mg/kg, leptin 0.4 mg/kg) is 0.70. Besides, in assay [1] (setting [6]), the “I/M (intima:media ratio)” value is 0.574 ± 0.186, the Intima is 0.010 ± 0.003, the Lumen came to 0.013 ± 0.002 and the Media amounted to 0.020 ± 0.003. The “TVA (total vessel area)” value in assay [1] (setting [6]) is 0.044 ± 0.006. Besides, in assay [2] (Example 1, 100 ng/mL leptin, inhibitor 10 mM, 72 hr), the “effect on leptin-induced proliferation of murine VSMC” value is “did inhibit”. In addition, the “VSMC proliferation induced by leptin and insulin” value in assay [2] (LY294002 compared with 100 nmol/L rapamycin alone) is “more pronounced effect”. For the same compound, the inhibition at 1.2 mg/kg/day in assay [3] was above 80%. The “effect on leptin-induced VSMC proliferation” value in assay [4] was “inhibited”. In addition, in assay [5], the “neointimal hyperplasia in cultured porcine coronary arteries” value is recorded as “prevents neointimal hyperplasia”.

The values above are taken from patent US20090274739A1, “METHODS AND COMPOSITIONS FOR TREATING NEOINTIMAL HYPERPLASIA” (THE TRUSTEES OF COLUMBIA UNIVERSITY IN THE CITY OF NEW YORK, priority 2006, published 2009).
